Experimental findings from publication PMC5681660, “Reduced hepatitis B and D viral entry using clinically applied drugs as novel inhibitors of the bile acid transporter NTCP” (Scientific Reports, 2017) are described below.

Structures can show the parent of a compound that is named as a salt. Where two headings read alike, the source gives them in different places.

Assay [1] concerns the target T1, human NTCP (Homo sapiens, UniProt Q14973).
T1 sequence (Q14973 1-349): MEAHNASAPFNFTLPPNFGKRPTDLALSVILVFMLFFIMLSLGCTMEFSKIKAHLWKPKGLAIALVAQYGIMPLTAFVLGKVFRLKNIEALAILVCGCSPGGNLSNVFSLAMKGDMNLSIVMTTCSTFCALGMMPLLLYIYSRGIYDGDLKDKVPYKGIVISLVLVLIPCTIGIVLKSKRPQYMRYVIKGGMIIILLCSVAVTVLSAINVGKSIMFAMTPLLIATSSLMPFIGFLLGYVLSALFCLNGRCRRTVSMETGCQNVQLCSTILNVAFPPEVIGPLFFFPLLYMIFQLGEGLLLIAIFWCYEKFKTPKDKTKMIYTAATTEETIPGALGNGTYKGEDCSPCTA
Briefly: Screening taurocholate uptake assay (96-well, [14C]taurocholate, 10 µM drug).

The target in assay [2] is T1, human NTCP. Kind of assay: Screening fluorescent competitive Myrcludex B-FITC binding assay (96-well, 10 µM drug).
Where [3] appears, read: Prestwick library screen, 10 µM drug, B-score of taurocholate uptake.
The mark [4] stands for this setting: combined ranking from functional and binding assay B-scores.
Setting [5] is: Prestwick library screen, 10 µM drug, B-score of Myrcludex B-FITC binding.
[6] abbreviates: Prestwick library screen, taurocholate uptake, 10 µM drug.
[7] abbreviates: ranking score beside the functional and binding assay B-scores of the screen.
Setting [8] is: Prestwick library screen, Myrcludex B-FITC binding, 10 µM drug.
The mark [9] stands for this setting: combined ranking from functional and binding screening assays.
Where [10] appears, read: screen, 10 µM drug, taurocholate uptake.
The mark [11] stands for this setting: screen, 10 µM drug, Myrcludex B-FITC binding.

At human NTCP [1] (setting [3]), `CN1C(=O)OC(C)(C)C1=O` [Trimethadione] registered a B-score functional assay of 1.466. Further, the Ranking score at human NTCP [1] (setting [4]) turned out to be 860.791. This molecule also showed a B-score binding assay at human NTCP [2] (setting [5]) of 0.001.
On human NTCP [1], `CC1COc2c(N3CCN(C)CC3)c(F)cc3c(=O)c(C(=O)O)cn1c23` (stereo not drawn) [Ofloxacin] had a B-score functional assay of 1.32 and a Ranking score of 1023.33. Besides, the B-score binding assay at human NTCP [2] is reported as 0.588.
On human NTCP [1] (setting [3]), `O=C(CCCN1CCN(c2ccccn2)CC1)c1ccc(F)cc1` [Azaperone] registered a B-score functional assay of 0.852. Besides, the Ranking score at human NTCP [1] (setting [4]) amounted to 931.399. The molecule also returned a B-score binding assay at human NTCP [2] (setting [5]) of 0.326.
The matching figures for `CC(C)(Oc1ccc(Cl)cc1)C(=O)O` [Clofibric acid]: 1.224, 881.708 and 0.048.
`Fc1ccc(C(c2ccc(F)cc2)N2CCN(C/C=C/c3ccccc3)CC2)cc1` [Flunarizine dihydrochloride] gave a B-score functional assay on human NTCP [1] (setting [6]) of 0.875. The molecule further showed a Ranking score on human NTCP [1] (setting [7]) of 816.419. The molecule also came in with a B-score binding assay on human NTCP [2] (setting [8]) of 0.001.
Turning to `NCC1(CC(=O)O)CCCCC1` [Gabapentin], the Ranking score at human NTCP [1] (setting [9]) was 428.131. This molecule also registered a B-score functional assay at human NTCP [1] (setting [10]) of -0.982. The B-score binding assay on human NTCP [2] (setting [11]) is 0.068.
On human NTCP [1] (setting [6]), `Cc1cc(-c2ccccc2)nnc1NCCN1CCOCC1` [Minaprine dihydrochloride] returned a B-score functional assay of 1.278. At human NTCP [1] (setting [7]), this molecule came in with a Ranking score of 814.509. The same molecule gave a B-score binding assay on human NTCP [2] (setting [8]) of -0.039.
The matching figures for `C1CCc2nnnn2CC1` [Pentylenetetrazole]: 0.223, 696.951 and -0.037.
Regarding `CC(N)C(O)c1ccccc1` (stereo not drawn) [Phenylpropanolamine hydrochloride], at human NTCP [1], the B-score functional assay came out at 0.305 and the Ranking score was determined as 449.533. On human NTCP [2], the B-score binding assay is on record as -0.994.
The molecule `COc1ccc2c(c1)N(C[C@H](C)CN(C)C)c1ccccc1S2.O=C(O)/C=C\C(=O)O` [Methotrimeprazine maleat salt] showed a B-score functional assay on human NTCP [1] (setting [6]) of 1.773. The Ranking score at human NTCP [1] (setting [7]) came out at 734.211. Further, the B-score binding assay on human NTCP [2] (setting [8]) was -0.27.
`CC[C@@H]1C(=O)OC[C@@H]1Cc1cncn1C` [Pilocarpine nitrate]: the B-score functional assay at human NTCP [1] (setting [3]) is 0.794. Moreover, the Ranking score on human NTCP [1] (setting [4]) was 931.987. This molecule also had a B-score binding assay at human NTCP [2] (setting [5]) of 0.358.
As for `Oc1ncnc2[nH]ncc12` [Allopurinol], at human NTCP [1] (setting [6]), the B-score functional assay stood at 0.076. Besides, the Ranking score at human NTCP [1] (setting [7]) came out at 820.729. On human NTCP [2] (setting [8]), this molecule displayed a B-score binding assay of 0.547.
At human NTCP [1] (setting [3]), `CC[C@H]1OC(=O)[C@H](C)[C@@H](O[C@H]2C[C@@](C)(OC)[C@@H](O)[C@H](C)O2)[C@H](C)[C@@H](O[C@@H]2O[C@H](C)C[C@H](N(C)C)[C@H]2O)[C@](C)(O)C[C@@H](C)CN(C)[C@H](C)[C@@H](O)[C@]1(C)O` [Azithromycin] displayed a B-score functional assay of 0.119. On human NTCP [1] (setting [4]), the Ranking score stood at 972.082. This molecule displayed a B-score binding assay on human NTCP [2] (setting [5]) of 2.513.
On the same counts, the results for `CCOC(=O)c1cncn1[C@H](C)c1ccccc1` [Etomidate] are 5.522, 852.333 and -0.068.
In turn, `Nc1ccn([C@H]2CC[C@@H](CO)O2)c(=O)n1` [Zalcitabine] displayed a B-score functional assay at human NTCP [1] (setting [6]) of 1.286. Besides, at human NTCP [1] (setting [7]), the Ranking score came to 782.741. For the same molecule, the B-score binding assay on human NTCP [2] (setting [8]) is given as -0.087.
At human NTCP [1] (setting [3]), `Cn1cc[nH]c1=S` [Methimazole] came in with a B-score functional assay of 0.936. Besides, the Ranking score on human NTCP [1] (setting [4]) turned out to be 1068.39. At human NTCP [2] (setting [5]), the B-score binding assay is 1.226.
The matching figures for `c1ccc(CC2=NCCN2)cc1` [Tolazoline hydrochloride]: 4.096, 929.251 and 0.03.
At human NTCP [1] (setting [6]), `O=C(O)c1cccnc1Nc1cccc(C(F)(F)F)c1` [Niflumic acid] yielded a B-score functional assay of 0.166. For the same molecule, at human NTCP [1] (setting [7]), the Ranking score was 675.036. This molecule also yielded a B-score binding assay on human NTCP [2] (setting [8]) of -0.054.
The matching figures for `Cn1c(=O)c2c(ncn2C)n(C)c1=O` [Caffeine]: 0.363, 818.709 and 0.154.
The matching figures for `CC(C)NC[C@@H](O)COc1ccc(CC(N)=O)cc1` [(R)-(+)-Atenolol]: 0.006, 655.981 and 0.009.
On the same counts, the results for `CC(=O)N(CC(O)CO)c1c(I)c(C(=O)NCC(O)CO)c(I)c(C(=O)NCC(O)CO)c1I` (stereo not drawn) [Iohexol] are 0.198, 748.519 and 0.046.
As to `CC(=O)OCC1=C(C(=O)O)N2C(=O)[C@@H](NC(=O)Cc3cccs3)[C@H]2SC1` [Cephalothin sodium salt], the Ranking score on human NTCP [1] (setting [9]) is 427.172. The same molecule displayed a B-score functional assay on human NTCP [1] (setting [10]) of -1.381. The molecule further returned a B-score binding assay on human NTCP [2] (setting [11]) of 0.561.
Consider `C=CCC1(CC(C)C)C(=O)NC(=O)NC1=O` [Butalbital], for which, on human NTCP [1], the B-score functional assay is reported as -0.027 and the Ranking score came out at 849.583. The same molecule yielded a B-score binding assay at human NTCP [2] of 2.017.
For the molecule `COc1ccc([C@@H]2Sc3ccccc3N(CCN(C)C)C(=O)[C@@H]2OC(C)=O)cc1` [Diltiazem hydrochloride], on human NTCP [1] (setting [9]), the Ranking score is on record as 351.949. The same molecule returned a B-score functional assay on human NTCP [1] (setting [10]) of -0.552. On human NTCP [2] (setting [11]), this molecule displayed a B-score binding assay of -0.608.
On the same counts, the results for `C[N+]1(CCCCC[N+]2(C)CCCC2)CCCC1.O=C([O-])C(O)C(O)C(=O)O.O=C([O-])C(O)C(O)C(=O)O` [Pentolinium bitartrate] are 451.889, -0.089 and -0.512.
As for `Nc1nc(O)c2ncn(COC(CO)CO)c2n1` [Ganciclovir], the Ranking score at human NTCP [1] (setting [9]) was 278.51. The same molecule showed a B-score functional assay at human NTCP [1] (setting [10]) of -2.412. In addition, the B-score binding assay at human NTCP [2] (setting [11]) is given as 0.144.
With `C(#CCN1CCCC1)CN1CCCC1.Cl.Cl` [Tremorine dihydrochloride], the Ranking score on human NTCP [1] (setting [9]) is given as 382.832. The B-score functional assay at human NTCP [1] (setting [10]) was -2.034. On human NTCP [2] (setting [11]), this molecule registered a B-score binding assay of 1.525.
The matching figures for `C#C[C@]1(O)CC[C@H]2[C@@H]3CCC4=Cc5oncc5C[C@]4(C)[C@H]3CC[C@@]21C` [Danazol]: 407.041, -0.499 and -0.305.
Take `CCN(CC)C(C)CN1c2ccccc2Sc2ccccc21` (stereo not drawn) [Ethopropazine hydrochloride]: at human NTCP [1] (setting [6]), the B-score functional assay worked out at 0.753. Further, the Ranking score at human NTCP [1] (setting [7]) is reported as 687.443. Moreover, the B-score binding assay on human NTCP [2] (setting [8]) was -0.236.
As for `NCCCC(O)(P(=O)(O)O)P(=O)(O)O` [Alendronate sodium], on human NTCP [1] (setting [9]), the Ranking score is recorded as 453.598. The B-score functional assay on human NTCP [1] (setting [10]) amounted to 0.279. On human NTCP [2] (setting [11]), this molecule showed a B-score binding assay of -0.968.
As for `CCC(=O)O[C@@](Cc1ccccc1)(c1ccccc1)[C@@H](C)CN(C)C` [Levopropoxyphene napsylate], at human NTCP [1], the B-score functional assay is 0.245 and the Ranking score is listed as 726.763. Also, on human NTCP [2], the B-score binding assay was 0.
At human NTCP [1] (setting [6]), `CCC1(c2ccc(N)cc2)CCC(=O)NC1=O` (stereo not drawn) [Glutethimide, para-amino] yielded a B-score functional assay of 0.113. The Ranking score on human NTCP [1] (setting [7]) was determined as 663.514. This molecule also yielded a B-score binding assay at human NTCP [2] (setting [8]) of -0.055.
For the molecule `CC1(C)S[C@@H]2[C@H](NC(=O)Cc3ccccc3)C(=O)N2[C@H]1C(=O)O` [Benzylpenicillin sodium], the Ranking score at human NTCP [1] (setting [9]) stood at 344.346. The molecule also returned a B-score functional assay at human NTCP [1] (setting [10]) of -0.043. Also, the B-score binding assay at human NTCP [2] (setting [11]) is -1.247.
At human NTCP [1] (setting [6]), `CC(=O)OCC(=O)[C@@]1(O)CC[C@H]2[C@@H]3CCC4=CC(=O)CC[C@]4(C)[C@H]3[C@@H](O)C[C@@]21C` [Cortisol acetate] gave a B-score functional assay of 0.009. In addition, the Ranking score at human NTCP [1] (setting [7]) worked out at 752.137. The molecule further had a B-score binding assay at human NTCP [2] (setting [8]) of 0.369.
In the case of `C[C@H]1NC(=O)NC1=O` [Methylhydantoin-5-(D)], at human NTCP [1] (setting [9]), the Ranking score is listed as 290.241. The B-score functional assay at human NTCP [1] (setting [10]) is 0.047. Also, the B-score binding assay at human NTCP [2] (setting [11]) is reported as -1.862.
As for `Cc1nc2ccccn2c(=O)c1CCN1CCC(C(=O)c2ccc(F)cc2)CC1` [Pirenperone], the B-score functional assay on human NTCP [1] (setting [6]) is -0.092. The Ranking score on human NTCP [1] (setting [7]) stood at 829.554. The B-score binding assay on human NTCP [2] (setting [8]) worked out at 3.342.
Take `CCN1CCC[C@H]1CNC(=O)c1c(O)c(Cl)cc(Cl)c1OC` [Raclopride]: at human NTCP [1] (setting [3]), the B-score functional assay was found to be 0.507. Moreover, the Ranking score at human NTCP [1] (setting [4]) is on record as 891.19. Besides, the B-score binding assay at human NTCP [2] (setting [5]) worked out at 0.374.
`Nc1nc(N)nc(-c2cc(Cl)ccc2Cl)n1` [Irsogladine maleate]: the B-score functional assay at human NTCP [1] (setting [6]) was 5.029. The molecule further came in with a Ranking score at human NTCP [1] (setting [7]) of 750.144. Also, the B-score binding assay at human NTCP [2] (setting [8]) is given as -0.312.
For `COP(=O)(OC)C(O)C(Cl)(Cl)Cl` (stereo not drawn) [Trichlorfon], on human NTCP [1] (setting [9]), the Ranking score amounted to 431.184. In addition, the B-score functional assay at human NTCP [1] (setting [10]) is -0.853. On human NTCP [2] (setting [11]), this molecule returned a B-score binding assay of 0.016.
